Data from article PMC11272598, “RG7774 (Vicasinabin), an orally bioavailable cannabinoid receptor 2 (CB2R) agonist, decreases retinal vascular permeability, leukocyte adhesion, and ocular inflammation in animal models” (Frontiers in Pharmacology, 2024).

How the values were obtained:
[1] = Parallel artificial membrane permeability assay (PAMPA); assay type: physicochemical
Method: A 96-well microtiter plate was filled with aqueous buffer (typically 0.05 M Tris, pH 7.4, or 0.05 M phosphate, pH 6.5) and covered with a filter plate in a sandwich construction. The hydrophobic filter material (Durapore/Millipore; pore size 0.22–0.45 μm) covering the first 48 wells (sample) was impregnated with 1%–20% lecithin dissolved in dodecane, hexadecane, and 1,9-decadiene. The filter cover for the remaining 48 wells (reference) was wetted with 4–5 μL of a 50% (v/v) methanol/buffer solution. The transfer of RG7774 and reference substances from the donor compartment, through the lipid-infused artificial membrane, into the acceptor compartment was initiated by transferring 100–200 μL of a 250 or 500 μM stock solution to filter plates covering the sample and reference wells, respectively. The maximum DMSO content of the stock solutions was 5%. The permeation coefficient (Peff) was determined as previously described by Kansy et al. 1998 [3].

[2] = Plasma PK profile in mice; assay type: in vivo, C57BL/6J mice
Method: The plasma PK profile of RG7774 was assessed in adult male C57BL/6J mice and female Wistar rats (Charles River, Cologne, Germany) housed in a controlled environment (temperature, humidity, and 12 h light/dark cycle) with unrestricted access to food and water. The ocular PK profile of RG7774 was assessed in adult female […] rats (Charles River, Mattawan, MI, United States) housed in a controlled environment (21°C–22°C temperature, 40%–60%, humidity, and 12 h light/dark cycle) with unrestricted access to food and water and conducted according to local regulations by EyeCRO (Ann Arbor, MI, United States).
In the first study (animal permission #1857), mice received RG7774 as an intravenous (IV) bolus at 1 mg/kg (n = 6) or as an oral (PO) dose at 3 mg/kg (n = 5). In the second study (animal permission #2373), rats received RG7774 as an IV bolus at 10 mg/kg (n = 4) or via gavage at 30 mg/kg (n = 3). Blood samples were collected 0.1, 1, 3, 10, and 24 h post-dose under deep anesthesia with 3%–5% isoflurane in 100% O2. Samples were collected sublingually from mice, from the tail vein in rats or via heart puncture (terminal) into anticoagulant-coated polypropylene tubes and placed on ice. Plasma was prepared within 30 min of collection by centrifugation at 3,000 g for 5 min at 4°C and was immediately frozen. RG7774 concentrations in plasma were determined using LC-MS/MS. PK parameters were estimated by non-compartmental analysis of plasma data using Phoenix WinNonlin software (Certara, Princeton, NJ, United States).

[3] = system: laser-induced CNV; assay: Laser-induced CNV in rats, fluorescein angiography lesion area; assay type: in vivo, Brown Norway rats; settings: CNV rat model, ED50 0.037 mg/kg
Method: Male Brown Norway rats (Charles River, Sulzfeld, Germany) aged 9 weeks and weighing 200 g on arrival ([…] after 1 week) were housed in individually ventilated GR1800 cages (Tecniplast, Pontremoli, Italy) with a maximum density of n = 5 rats per cage with the same litter and sex. The room was kept at 20°C–24°C with 50%–60% humidity and a 12/12 h light-dark cycle with ad libitum access to standard diet and water.
RG7774 was formulated (w/w) in 0.1% hydroxyethyl cellulose, 1% polysorbate 80, 0.18% methylparaben, 0.02% propylparaben, and 0.21% citric acid monohydrate, adjusted to pH 6 using NaOH. Three studies with 20 rats each were performed. […] The wellbeing of the animals was monitored daily, and free access was granted to food and water. […] Body weight was continuously monitored, and oral doses of RG7774 were adjusted accordingly. […]
Rats were anesthetized 1 week after laser injury using fentanyl 0.005 mg/kg, medetomidine 0.15 mg/kg, and midazolam 2 mg/kg. […] Retinal vessels and neovascularization were visualized by switching to fluorescence mode.
Images taken by the Heidelberg Spectralis HRA system were manually analyzed for the degree of CNV within the lesion (fluorescent) area and the affected area (in mm^2) was calculated using the Heidelberg Eye Explorer imaging program (Heidelberg Spectralis HRA, Heidelberg Engineering, Heidelberg, Germany). […]

[4] = system: Human EMT; assay: Human EMT activity (HaCaT cells); assay type: cell-based; settings: RG7774 10 µM
Method: HaCaT cells were seeded (350,000–400,000 cell/well) in triplicate in 12-well plates and incubated for 15 min in PBS at 37°C with [^3H]-N-arachidonoylethanolamine ([^3H]-AEA) (400 nM) (ARC, MO, USA), as previously reported. Experiments were repeated at 4°C in order to subtract passive diffusion from EMT-mediated uptake. RG7774 (10 µM) was preincubated with labeled HaCaT cells for 15 min before adding directly to the incubation medium (PBS). The selective EMT inhibitor, OMDM-1 (40 µM), was used as positive control.

[5] = male, C57BL/6J, mouse, plasma, IV 1 mg/kg
[6] = male, C57BL/6J, mouse, plasma, PO 3 mg/kg

In the case of `Cn1nnnc1Cn1nnc2c(N3CC[C@H](O)C3)nc(C(C)(C)C)nc21` [RG7774, (S)-1-(5-tert-butyl-3-[(1-methyl-1H-tetrazol-5-yl)methyl]-3H-[1,2,3]triazolo[4,5-d]pyrimidin-7-yl)pyrrolidin-3-ol], the “PAMPA P eff” value [1] was 9.7 10^−6 cm s^−1, the PAMPA acceptor compartment [1] was 23% and the PAMPA donor compartment [1] was 59%. The PAMPA membrane [1] was 18%, the AUCinf/dose ([2]; IV 1 mg/kg) was 1,230 ng h^–1 ml^–1 (mg kg^−1) ^−1 and the AUCinf/dose ([2]; PO 3 mg/kg) was 490 ng h^–1 ml^–1 (mg kg^−1) ^−1. The Cmax/dose ([2]; PO 3 mg/kg) was 487 ng ml^–1 (mg kg^–1) ^−1, the clearance [2, 5] was 13.2 mL/min/kg and the half-life [2, 5] was 9.04 h. The Vd ([2]; male, C57BL/6J, mouse, plasma, IV 1 mg/kg, read-out: Vss) was 3.7 L/kg, the Tmax [2, 6] was 0.25 h and the bioavailability [2, 6] was 42.2%. For the same compound, the half-life [2, 6] was 2.1 h, the “maximum concentration of the free active epimer in plasma associated with the ED50” value [3] was 12.5 nM and the “average concentration of the free active epimer in plasma associated with the ED50” value ([3]; S/R-enantiomer ratio of 2 assumed) was 1.05 nM. For the same compound, the “Mean ± SEM % inhibition of control, Human EMT” value [4] was 4.5 ± 25.5%.
